From patent publication US9499519B2, “Fused pyrimidine compounds and use thereof” (Medivation Technologies, Inc., priority 2012, dated 2016) come the findings set out here.

SMILES strings stand for the structures.

One assay concerns the target T1, IGF-1R (Homo sapiens, UniProt P08069).
T1 construct: purchased Millipore 14-802
As to the kind of experiment: In vitro IGF-1R enzymatic assay (ADP-Glo kinase assay). Type of assay: biochemical. The note with it: activated IGF-1R, 30 nM, average; for inhibition at 0.03 µM: read-out: % Inh @ 30 nM Avg. The protocol:
(§1) IC50 values of the compounds of the invention against IGF-1R and IR were measured in vitro using an ADP-Glo kinase assay Kit (Promega). […] Kinase reactions in both assays were conducted at 30° C. for 20 min with increasing concentrations of compounds of the invention.
Additional compounds of the invention were screened against activated IGF-1R.
For orientation: ADP-Glo first removes unused ATP, then detects ADP through luciferase.

For assay [1], the system named is Akt phosphorylation induced by IGF-1R. Put plainly: Western blot analysis of Akt phosphorylation induced by IGF-1 in HT-29 cells. The format is cell-based, Human. The note with it: for Levels of phosphorylated AKT in treated cells (pAKT/actin): HT-29 cells, IGF-1; for p-AKT relative to levels with 0.1 nM compound: Table B2 lower part; for Normalized phosphorylated AKT (relative to actin) levels relative to 0.1 nM compound treatment: Table B2 upper part. The procedure: Inhibition of Akt phosphorylation induced by IGF-1R was studied by western blot analysis. Human colon carcinoma HT-29 cells were seeded at a density of 8×10^4 cells/well in a 24-well plate and grown in DME/F12 media containing 10% FBS for 24 h. The cells were then depleted of serum by incubation in DME/F12 media lacking FBS for 24 h. […] […] Lysed cells were centrifuged at 13,000 rpm for 15 min and the protein concentration soluble fraction (supernatant) of each sample was determined using a BCA protein assay (Pierce).
(In general: In western blotting, separated proteins are transferred to a membrane and probed.)

Another assay concerns the target T2, IR (Homo sapiens, UniProt P06213).
T2 construct: purchased Millipore 14-803
As to the kind of experiment: In vitro IR enzymatic assay (ADP-Glo kinase assay). Type of assay: biochemical. The note with it: activated IR, 30 nM. The procedure: as §1
Additional compounds of the invention were screened against activated IR.

T1 sequence (P08069 31-1367): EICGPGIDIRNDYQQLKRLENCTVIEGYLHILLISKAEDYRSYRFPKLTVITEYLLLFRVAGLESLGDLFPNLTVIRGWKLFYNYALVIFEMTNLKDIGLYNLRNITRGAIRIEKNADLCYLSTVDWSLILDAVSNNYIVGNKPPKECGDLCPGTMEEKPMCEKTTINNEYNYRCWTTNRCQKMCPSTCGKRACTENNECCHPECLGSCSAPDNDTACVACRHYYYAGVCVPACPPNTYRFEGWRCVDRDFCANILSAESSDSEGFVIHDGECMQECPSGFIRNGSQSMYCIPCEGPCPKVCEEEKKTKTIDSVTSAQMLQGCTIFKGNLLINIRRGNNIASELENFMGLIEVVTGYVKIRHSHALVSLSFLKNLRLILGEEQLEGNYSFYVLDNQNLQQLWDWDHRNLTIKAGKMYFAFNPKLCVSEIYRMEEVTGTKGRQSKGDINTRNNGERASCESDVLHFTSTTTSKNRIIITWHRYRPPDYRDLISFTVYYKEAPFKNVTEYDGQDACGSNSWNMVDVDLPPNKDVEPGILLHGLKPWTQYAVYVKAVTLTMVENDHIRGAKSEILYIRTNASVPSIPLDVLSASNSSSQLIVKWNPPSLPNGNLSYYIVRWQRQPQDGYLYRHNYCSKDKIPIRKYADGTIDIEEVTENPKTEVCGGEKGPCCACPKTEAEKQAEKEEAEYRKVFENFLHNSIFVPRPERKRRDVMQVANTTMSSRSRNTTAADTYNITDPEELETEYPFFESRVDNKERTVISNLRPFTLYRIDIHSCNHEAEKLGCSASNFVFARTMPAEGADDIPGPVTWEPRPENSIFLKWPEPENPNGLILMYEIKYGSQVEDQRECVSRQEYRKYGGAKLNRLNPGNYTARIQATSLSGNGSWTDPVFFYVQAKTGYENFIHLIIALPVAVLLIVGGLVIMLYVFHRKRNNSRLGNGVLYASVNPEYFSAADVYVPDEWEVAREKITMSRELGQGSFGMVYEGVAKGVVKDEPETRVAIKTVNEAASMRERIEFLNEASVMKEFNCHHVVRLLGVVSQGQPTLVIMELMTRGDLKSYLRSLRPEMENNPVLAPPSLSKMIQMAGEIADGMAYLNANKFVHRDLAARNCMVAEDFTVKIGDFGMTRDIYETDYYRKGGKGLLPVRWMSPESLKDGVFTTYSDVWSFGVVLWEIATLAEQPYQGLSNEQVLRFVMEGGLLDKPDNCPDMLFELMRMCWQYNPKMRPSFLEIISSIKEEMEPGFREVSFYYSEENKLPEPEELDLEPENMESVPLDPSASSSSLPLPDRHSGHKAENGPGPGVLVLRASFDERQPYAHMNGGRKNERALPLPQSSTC
T2 sequence (P06213 28-1382): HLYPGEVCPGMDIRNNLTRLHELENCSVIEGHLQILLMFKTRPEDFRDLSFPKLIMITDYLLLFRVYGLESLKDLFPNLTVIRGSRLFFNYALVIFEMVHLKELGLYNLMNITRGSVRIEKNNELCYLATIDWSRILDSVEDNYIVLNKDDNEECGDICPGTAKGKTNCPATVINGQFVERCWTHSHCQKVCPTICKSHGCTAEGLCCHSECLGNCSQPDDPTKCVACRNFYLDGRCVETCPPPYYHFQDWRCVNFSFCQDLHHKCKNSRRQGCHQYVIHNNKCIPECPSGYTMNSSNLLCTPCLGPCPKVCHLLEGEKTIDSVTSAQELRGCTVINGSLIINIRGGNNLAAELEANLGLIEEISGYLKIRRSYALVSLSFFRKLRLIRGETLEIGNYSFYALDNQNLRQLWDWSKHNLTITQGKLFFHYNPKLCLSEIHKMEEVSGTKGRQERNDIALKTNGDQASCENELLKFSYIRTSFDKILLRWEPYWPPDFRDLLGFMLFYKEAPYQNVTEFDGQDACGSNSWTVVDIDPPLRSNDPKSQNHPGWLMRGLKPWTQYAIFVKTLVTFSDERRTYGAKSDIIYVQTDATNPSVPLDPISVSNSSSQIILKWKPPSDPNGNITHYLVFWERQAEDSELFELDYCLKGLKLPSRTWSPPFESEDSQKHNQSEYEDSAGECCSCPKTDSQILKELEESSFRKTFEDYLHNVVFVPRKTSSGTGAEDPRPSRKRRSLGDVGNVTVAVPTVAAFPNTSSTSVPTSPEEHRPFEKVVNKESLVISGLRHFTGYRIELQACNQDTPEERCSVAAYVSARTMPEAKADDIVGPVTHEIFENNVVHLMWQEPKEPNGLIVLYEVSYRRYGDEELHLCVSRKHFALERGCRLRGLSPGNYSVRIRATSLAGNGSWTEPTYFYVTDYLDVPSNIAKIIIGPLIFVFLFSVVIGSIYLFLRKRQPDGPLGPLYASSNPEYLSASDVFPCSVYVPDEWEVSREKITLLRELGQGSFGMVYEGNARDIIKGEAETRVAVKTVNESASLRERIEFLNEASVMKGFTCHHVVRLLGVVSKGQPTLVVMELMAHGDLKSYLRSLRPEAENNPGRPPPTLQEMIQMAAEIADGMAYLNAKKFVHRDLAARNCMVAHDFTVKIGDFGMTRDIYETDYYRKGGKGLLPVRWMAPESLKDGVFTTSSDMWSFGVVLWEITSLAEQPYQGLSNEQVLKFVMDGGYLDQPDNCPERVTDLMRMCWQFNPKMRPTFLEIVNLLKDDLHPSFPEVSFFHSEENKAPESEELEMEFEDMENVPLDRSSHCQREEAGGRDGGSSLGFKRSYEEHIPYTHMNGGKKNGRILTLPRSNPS

Consider `O=C(Nc1ccc(F)nc1)C1CC(O)CN1c1nc2c(c(Nc3cc(C4CC4)[nH]n3)n1)CCC2` (racemic) [Compound 10b, 1-(4-(5-cyclopropyl-1H-pyrazol-3-ylamino)-6,7-dihydro-5H-cyclopenta[d]pyrimidin-2-yl)-N-(6-fluoropyridin-3-yl)-4-hydroxypyrrolidine-2-carboxamide], for which the “% Inh @ 30 nM Avg” value on IGF-1R was −11%. In addition, the “Levels of phosphorylated AKT in treated cells (pAKT/actin)” value (from here on “Levels … (pAKT/actin)”) is recorded as 2.21 in assay [1] (0.1 nM compound), 2.75 in assay [1] (1 nM compound), 1.71 in assay [1] (10 nM compound) and 1.66 in assay [1] (100 nM compound). Besides, the “p-AKT relative to levels with 0.1 nM compound” value (“p-AKT relative to levels” below) is recorded as 1.0 in assay [1] (0.1 nM), 1.2 in assay [1] (1 nM), 0.8 in assay [1] (10 nM) and 0.8 in assay [1] (100 nM). Besides, the “Normalized phosphorylated AKT (relative to actin) levels relative to 0.1 nM compound treatment” value in assay [1] (0.1 nM) turned out to be 1.0; in assay [1] (1 nM), 1.2; in assay [1] (10 nM), 0.8; in assay [1] (100 nM) it was 0.8.

For `O=C(Nc1ccc(F)nc1)C1CC(O)CN1c1nc2c(c(Nc3cc(C4CC4)[nH]n3)n1)CCC2` (racemic) [Compound 10c, 1-(4-(5-cyclopropyl-1H-pyrazol-3-ylamino)-6,7-dihydro-5H-cyclopenta[d]pyrimidin-2-yl)-N-(6-fluoropyridin-3-yl)-4-hydroxypyrrolidine-2-carboxamide], the “% Inh @ 30 nM Avg” value at IGF-1R is reported as 15%.

For the compound `O=C(Nc1ccc(F)nc1)C1CCCCN1c1nc2c(c(Nc3cc(C4CC4)[nH]n3)n1)CCC2` (single isomer, unassigned) [Compound 9b, 1-(4-(3-cyclopropyl-1H-pyrazol-5-ylamino)-6,7-dihydro-5H-cyclopenta[d]pyrimidin-2-yl)-N-(6-fluoropyridin-3-yl)piperidine-2-carboxamide], the “Levels … (pAKT/actin)” value was determined as 1.46 in assay [1] (0.1 nM compound), 1.55 in assay [1] (1 nM compound), 1.18 in assay [1] (10 nM compound) and 0.78 in assay [1] (100 nM compound). Also, the “p-AKT relative to levels” value is 1.0 in assay [1] (0.1 nM), 1.1 in assay [1] (1 nM), 0.8 in assay [1] (10 nM) and 0.5 in assay [1] (100 nM). In addition, the “Normalized phosphorylated AKT (relative to actin) levels relative to 0.1 nM compound treatment” value came to 1.0 in assay [1] (0.1 nM), 1.1 in assay [1] (1 nM), 0.8 in assay [1] (10 nM) and 0.5 in assay [1] (100 nM).

For `O=C(Nc1ccc(F)nc1)[C@H]1[C@@H](O)CCN1c1nc2c(c(Nc3cc(C4CC4)[nH]n3)n1)CCC2` (single isomer, unassigned) [Compound 11a], the “% Inh @ 30 nM (N1)” value at IR (N1, 0.03 µM) is given as −17%. For the same compound, on IR (N2, 0.03 µM), the “% Inh @ 30 nM (N2)” value is −9%. Further, the “% Inh @ 30 nM Avg” value on IR (average) is −13%. Also, the “Levels … (pAKT/actin)” value in assay [1] (0.1 nM compound) was 1.83; in assay [1] (1 nM compound), 1.55; in assay [1] (10 nM compound) it was 1.43; in assay [1] (100 nM compound) it was 1.58. Besides, the “p-AKT relative to levels” value in assay [1] (0.1 nM) amounted to 1.0; in assay [1] (1 nM), 0.8; in assay [1] (10 nM), 0.8; in assay [1] (100 nM), 0.9. Moreover, the “Normalized phosphorylated AKT (relative to actin) levels relative to 0.1 nM compound treatment” value came to 1.0 in assay [1] (0.1 nM), 0.8 in assay [1] (1 nM), 0.8 in assay [1] (10 nM) and 0.9 in assay [1] (100 nM).

With `O=C(Nc1ccc(F)nc1)C1CCCN1c1nc2c(c(Nc3cc(C4CC4)[nH]n3)n1)CCCC2` (single isomer, unassigned) [Compound 14a, 1-(4-(5-cyclopropyl-1H-pyrazol-3-ylamino)-5,6,7,8-tetrahydroquinazolin-2-yl)-N-(6-fluoropyridin-3-yl)pyrrolidine-2-carboxamide], the “Levels … (pAKT/actin)” value in assay [1] (0.1 nM compound) was 0.73; in assay [1] (1 nM compound), 0.51; in assay [1] (10 nM compound) it was 0.43; in assay [1] (100 nM compound), 0.35. Moreover, the “p-AKT relative to levels” value is recorded as 1.0 in assay [1] (0.1 nM), 0.7 in assay [1] (1 nM), 0.6 in assay [1] (10 nM) and 0.5 in assay [1] (100 nM). Further, the “Normalized phosphorylated AKT (relative to actin) levels relative to 0.1 nM compound treatment” value amounted to 1.0 in assay [1] (0.1 nM), 0.7 in assay [1] (1 nM), 0.6 in assay [1] (10 nM) and 0.5 in assay [1] (100 nM).

`O=C(Nc1ccc(F)nc1)C1CCCN1c1nc2c(c(Nc3cc(C4CC4)[nH]n3)n1)CCCC2` (single isomer, unassigned) [Compound 14b, 1-(4-(5-cyclopropyl-1H-pyrazol-3-ylamino)-5,6,7,8-tetrahydroquinazolin-2-yl)-N-(6-fluoropyridin-3-yl)pyrrolidine-2-carboxamide]: the “Levels … (pAKT/actin)” value in assay [1] (0.1 nM compound) stood at 0.51; in assay [1] (1 nM compound), 0.49; in assay [1] (10 nM compound) it was 0.02; in assay [1] (100 nM compound), 0.00. Moreover, the “p-AKT relative to levels” value is on record as 1.0 in assay [1] (0.1 nM), 0.9 in assay [1] (1 nM), 0.0 in assay [1] (10 nM) and 0.0 in assay [1] (100 nM). For the same compound, the “Normalized phosphorylated AKT (relative to actin) levels relative to 0.1 nM compound treatment” value in assay [1] (0.1 nM) came out at 1.0; in assay [1] (1 nM), 0.9; in assay [1] (10 nM) it was 0.0; in assay [1] (100 nM) it was 0.0.

For `O=C(Nc1ccc(F)nc1)C1CCCCN1c1nc2c(c(Nc3cc(C4CCCC4)[nH]n3)n1)CCC2` (single isomer, unassigned) [Compound 17a, 1-(4-(5-cyclopentyl-1H-pyrazol-3-ylamino)-6,7-dihydro-5H-cyclopenta[d]pyrimidin-2-yl)-N-(6-fluoropyridin-3-yl)piperidine-2-carboxamide], the “Levels … (pAKT/actin)” value in assay [1] (0.1 nM compound) came out at 0.89; in assay [1] (1 nM compound), 1.22; in assay [1] (10 nM compound) it was 1.01; in assay [1] (100 nM compound), 1.08. Besides, the “p-AKT relative to levels” value came to 1.0 in assay [1] (0.1 nM), 1.4 in assay [1] (1 nM), 1.1 in assay [1] (10 nM) and 1.2 in assay [1] (100 nM). The “Normalized phosphorylated AKT (relative to actin) levels relative to 0.1 nM compound treatment” value in assay [1] (0.1 nM) is 1.0; in assay [1] (1 nM), 1.4; in assay [1] (10 nM) it was 1.1; in assay [1] (100 nM), 1.2.

`COC1CC(C(=O)Nc2ccc(F)nc2)N(c2nc3c(c(Nc4cc(C5CC5)[nH]n4)n2)CCC3)C1` (single isomer, unassigned) [Compound 21a, 1-(4-(5-cyclopropyl-1H-pyrazol-3-ylamino)-6,7-dihydro-5H-cyclopenta[d]pyrimidin-2-yl)-N-(6-fluoropyridin-3-yl)-4-methoxypyrrolidine-2-carboxamide]: the inhibition at 0.03 µM at IGF-1R amounted to 14%.

Turning to `COC1CC(C(=O)Nc2ccc(F)nc2)N(c2nc3c(c(Nc4cc(C5CC5)[nH]n4)n2)CCC3)C1` (single isomer, unassigned) [Compound 21b, 1-(4-(5-cyclopropyl-1H-pyrazol-3-ylamino)-6,7-dihydro-5H-cyclopenta[d]pyrimidin-2-yl)-N-(6-fluoropyridin-3-yl)-4-methoxypyrrolidine-2-carboxamide], the inhibition at 0.03 µM on IGF-1R is 41%.

Take `CC1(O)CC(c2nc(-c3ccc4ccc(-c5ccccc5)nc4c3)c3c(N)nccn23)C1` (centres unmarked) [OSI-906, 3-[8-Amino-1-(2-phenyl-7-quinolyl)imidazo[1,5-a]pyrazin-3-yl]-1-methyl-cyclobutanol, reference compound]: the “Levels … (pAKT/actin)” value in assay [1] (0.1 nM compound) amounted to 1.06; in assay [1] (1 nM compound), 0.85; in assay [1] (10 nM compound), 1.58; in assay [1] (100 nM compound), 0.40.
